Source: US20260293937A1, “SHRIMP FEED AND METHODS OF USE THEREOF” (Organicin Scientific, Inc., priority 2023, published 2026)
No end group written: not given here.

Tests used:
pathogenic Vibrio = assay: Minimum inhibitory concentration, all Vibrio species; type: cell-based; details: all species of Vibrio
Procedure: This Example describes the materials and methods, and results of a serial dilution experiment to determine the Minimum Inhibitory Concentration (MIC) of Nisin in reducing a concentration of pathogenic Vibrio.
On the day before the experiment, Vibrio stock were prepared by sterilizing an inoculation loop, cooling the product, and extracting cells. Such extract was incubated at 37° C. for 16 to 20 hours. The density of cells was normalized to a cell density of approximately 10^7 to 10^8 CFU/mL and 100 uL lawns were prepared at a cell density of about 10^6 to 10^7 CFU using sterile glass beads. Four lawns were made so that each Nisin dilution could be tested on two identical plates.
5 μL of two-fold dilutions (See Table 1, below) of Nisin (Immucell; 99% pure), or shrimp feed (without Nisin), citric acid, or DH20 negative controls, respectively, were spotted on the plates, which were incubated at 37° C. for 16 to 20 hours. The minimum inhibitory concentration was determined. In particular, plates were characterized based upon the presence (0) or absence (1) of Vibrio growth.

[1] = system: brine shrimp (Artemia salina); assay: Brine shrimp toxicity of Nisin formulations (Example 4); type: in vivo; details: Nisin in citric acid buffer solution, reduced pH; data not shown
Procedure: This Example describes the efficacy of various Nisins: Nisin Z, Nisin A, and ImmuCell Nisin A. This experiment assessed the safety and antimicrobial efficacy of various Nisin formulations in treating Vibrio parahaemolyticus infections, a common pathogen in aquaculture environments. Brine shrimp (Artemia salina) were utilized as a model organism to simulate potential impacts on Pacific whiteleg shrimp (Penaeus vannamei).
Nisin variants (Nisin A, Nisin Z, and ImmuCell Nisin A) were dissolved in either citric acid buffer (CAB, pH 3.4) for Nisin A or dH2O for Nisin Z to make a stock solution of 4.86 mg/mL. Serial dilutions were performed to achieve the different concentrations (4.86 mg/mL to 0.005 mg/mL) for the experiments.
Artemia salina eggs were hatched in artificial seawater (Instant Ocean) under controlled conditions. Newly hatched brine shrimp were then exposed to varying concentrations of each Nisin solution in experimental tanks. A separate set of tanks was used for each type of Nisin formulation.
Control tanks (treated with either CAB or saline water) were prepared to observe the natural behavior and survival rate of Artemia salina without Nisin exposure.
Brine shrimp were divided into different tanks for exposure to varying concentrations (2.43 mg/mL, 0.608 mg/mL, 0.152 mg/mL, and 0.038 mg/mL) of Nisin A, Nisin Z, and ImmuCell Nisin A.
Mortality and behavior of the brine shrimp were recorded at 24 and 48 hours post-exposure. For the antimicrobial tests, the diameter of inhibition zones on agar plates containing the laboratory control strains were measured and recorded.

## Nisin: Nisin (Immucell; 99% pure) in Example 1; bacteriocin Nisin in shrimp feed at 0.84, 8.4 and 84 mg/g in Example 2 (ITSISLCTPGCKTGALMGCNMKTATCHCSIHVSK; cysteine pairing not given here; also: lantibiotic, modifications not placed; UniProt P13068 24-57, looked up)
Pathogenic Vibrio
  MIC compared with negative control: significantly smaller MIC than the negative control
[1]
  cause of mortality in toxicity trials: mortality that is not related to the peptide Nisin itself
